Counter-ions that a name gives are not always drawn.
Key:
[1] = target: T1, NK1-receptor (substance P-receptor) (Homo sapiens, UniProt P25103); experiment: NK1-receptor affinity, displacement of 125I-labelled substance P on IM-9 cells; type: binding; details: human lymphoblastoma cells (IM-9) with cloned NK1-receptors
T1 construct: expressed in transfected cells; host or cells: IM-9 human lymphoblastoma cells
T1 sequence (P25103 whole entry): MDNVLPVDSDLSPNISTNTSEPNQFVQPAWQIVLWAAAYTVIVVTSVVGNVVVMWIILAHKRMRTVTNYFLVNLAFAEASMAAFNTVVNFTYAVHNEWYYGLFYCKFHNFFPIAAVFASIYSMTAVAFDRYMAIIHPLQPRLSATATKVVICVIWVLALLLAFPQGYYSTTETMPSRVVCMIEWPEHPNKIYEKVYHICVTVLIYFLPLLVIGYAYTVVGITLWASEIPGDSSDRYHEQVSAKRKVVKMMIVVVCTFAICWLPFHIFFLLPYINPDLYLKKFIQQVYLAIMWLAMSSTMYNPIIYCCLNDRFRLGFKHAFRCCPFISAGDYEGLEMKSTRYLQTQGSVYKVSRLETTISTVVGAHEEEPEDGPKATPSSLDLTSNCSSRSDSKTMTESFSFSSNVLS

Structure (SMILES) | melting point | Ki [1] [nM]
O=C(NCc1cc(C(F)(F)F)cc(C(F)(F)F)c1)C(c1ccccc1)N1CCC(Nc2ccccn2)CC1 (centres unmarked) [Example 14] | 164 to 166 °C | –
CC(=O)N1CCN(C2CCN(C(C(=O)NCc3cc(C(F)(F)F)cc(C(F)(F)F)c3)c3ccccc3)CC2)C1=O (centres unmarked) [Example 13] | 87 to 95 °C | –
O=C(NCc1cc(C(F)(F)F)cc(C(F)(F)F)c1)C(c1ccccc1)N1CCC(N(C(=O)c2ccccc2)c2ccccc2)CC1 (centres unmarked) | 102 to 105 °C | –
O=C(Nc1ccccc1)C1CCN(C(C(=O)NCc2cc(C(F)(F)F)cc(C(F)(F)F)c2)c2ccccc2)CC1 (centres unmarked) [Example 19] | > 240 °C (dec.) | –
CN(CCc1cc(C(F)(F)F)cc(C(F)(F)F)c1)C(=O)C(c1ccccc1)N1CCC(N2CCCCC2)CC1 (centres unmarked) (as salt: hydrochloride) [Example 33] | > 240 °C | –
CCN(CCc1cc(C(F)(F)F)cc(C(F)(F)F)c1)C(=O)C(c1ccccc1)N1CCC(N2CCCCC2)CC1 (centres unmarked) [Example 73] | – | 1.7
Cl.O=C(NCc1cc(C(F)(F)F)cc(C(F)(F)F)c1)C(c1ccccc1)N1CCC(N(C(=O)c2ccccc2)c2ccccn2)CC1 (centres unmarked) | 145 to 151 °C | –
CN(CCc1cc(C(F)(F)F)cc(C(F)(F)F)c1)C(=O)C(c1ccccc1)N1CCC(N2CCOCC2)CC1 (centres unmarked) [Example 46] | – | 1.4
Cc1nc2ccccc2n1C1CCN(C(C(=O)NCc2cc(C(F)(F)F)cc(C(F)(F)F)c2)c2ccccc2)CC1 (centres unmarked) | 107 to 111 °C | –
Cl.O=C(NCc1cc(C(F)(F)F)cc(C(F)(F)F)c1)C(c1ccccc1)N1CCC(N2C(=O)CCC2=O)CC1 (centres unmarked) | 110 to 115 °C | –
CN(CCc1cc(C(F)(F)F)cc(C(F)(F)F)c1)C(=O)C(c1ccccc1)N1CCC2(CC1)C(=O)NCN2c1ccccc1 (centres unmarked) | 265 to 268 °C (dec.) | –
O=C(C(c1ccccc1)N1CCC(N2CCCCC2)CC1)N(CCc1cc(C(F)(F)F)cc(C(F)(F)F)c1)Cc1ccccc1 (centres unmarked) [Example 76] | – | 7
CC(C)N(CCc1cc(C(F)(F)F)cc(C(F)(F)F)c1)C(=O)C(c1ccccc1)N1CCC(N2CCCCC2)CC1 (centres unmarked) [Example 72] | – | 6.8
CN(CCc1cc(C(F)(F)F)cc(C(F)(F)F)c1)C(=O)C(c1ccccc1)N1CCC(n2c(=O)[nH]c3ccccc32)CC1 (centres unmarked) | 177 to 187 °C | –
O=C(NC1CCN(C(C(=O)NCc2cc(C(F)(F)F)cc(C(F)(F)F)c2)c2ccccc2)CC1)c1ccccc1 (centres unmarked) [Example 20] | 180 to 185 °C | –
O=C(NCc1cc(C(F)(F)F)cc(C(F)(F)F)c1)C(c1ccccc1)N1CCC(n2c(=O)[nH]c3cccnc32)CC1 (centres unmarked) [Example 15] | 208 to 210 °C | –
O=C(NCc1cc(C(F)(F)F)cc(C(F)(F)F)c1)C(c1ccccc1)N1CCC2(CC1)C(=O)NCN2c1ccccc1 (centres unmarked) | 205 to 210 °C | –
NC(=O)C1(N2CCCCC2)CCN(C(C(=O)NCc2cc(C(F)(F)F)cc(C(F)(F)F)c2)c2ccccc2)CC1 (centres unmarked) [Example 11] | > 220 °C (dec.) | –
CN(CCc1cc(C(F)(F)F)cc(C(F)(F)F)c1)C(=O)C(c1ccccc1)N1CCC(C(N)=O)(c2ccccc2)CC1.Cl (centres unmarked) | 127 to 137 °C | –
O=C(Nc1ccccc1)NC1CCN(C(C(=O)NCc2cc(C(F)(F)F)cc(C(F)(F)F)c2)c2ccccc2)CC1 (centres unmarked) [Example 10] | 218 to 223 °C | –
O=C(NCc1cc(C(F)(F)F)cc(C(F)(F)F)c1)C(c1ccccc1)N1CCN(CCC2CC2)CC1 (centres unmarked) [Example 18] | 134 to 136 °C | –
CN(CCc1cc(C(F)(F)F)cc(C(F)(F)F)c1)C(=O)C(c1ccccc1)N1CCN(c2ccccc2)CC1 (centres unmarked) [Example 60] | 113 to 123 °C | –
CN(CCc1cc(C(F)(F)F)cc(C(F)(F)F)c1)C(=O)C(c1ccccc1)N1CCC(c2ccccc2)CC1.Cl (centres unmarked) | 106 to 110 °C | –
CCC(=O)NC1CCN(C(C(=O)NCc2cc(C(F)(F)F)cc(C(F)(F)F)c2)c2ccccc2)CC1 (racemic) [Example 2, (R,S)-4-propionylamino-1-[2-phenylacetic acid-N(3,5-bis-trifluoromethyl-benzyl)-amide]-piperidine] | 189 to 191 °C | –

Other lines, results leading:

melting point | Ki [1] [nM] | Structure (SMILES)
> 240 °C | – | O=C(NCc1cc(C(F)(F)F)cc(C(F)(F)F)c1)C(c1cccc(Cl)c1)N1CCN(C2CCCCC2)CC1 (centres unmarked) [Example 30]
210 to 218 °C | – | O=C(NCCc1cc(C(F)(F)F)cc(C(F)(F)F)c1)C(c1ccccc1Br)N1CCN(C2CCCCC2)CC1 (centres unmarked) [Example 62]
118 to 123 °C | – | O=C(NCCCc1ccc(C(F)(F)F)cc1C(F)(F)F)C(c1ccccc1)N1CCN(C2CCCCC2)CC1 (centres unmarked) [Example 17]
210 °C | – | O=C(NCc1cc(C(F)(F)F)cc(C(F)(F)F)c1)C(c1cc(C(F)(F)F)cc(C(F)(F)F)c1)N1CCN(C2CCCCC2)CC1 (centres unmarked) [Example 24]
> 240 °C | – | O=C(NCc1cc(C(F)(F)F)cc(C(F)(F)F)c1)C(c1ccc(F)cc1)N1CCN(C2CCCCC2)CC1 (centres unmarked) [Example 31]
228 to 232 °C | – | O=C(NCc1cc(C(F)(F)F)cc(C(F)(F)F)c1)C(c1ccc(Br)cc1)N1CCN(C2CCCCC2)CC1 (centres unmarked) [Example 21]
> 240 °C (dec.) | – | O=C(NCc1cc(C(F)(F)F)cc(C(F)(F)F)c1)C(c1ccccc1)N1CCC(N2CCCCC2)CC1 (centres unmarked) [Example 7]
85 to 92 °C | – | COc1ccccc1C(C(=O)NCCc1cc(C(F)(F)F)cc(C(F)(F)F)c1)N1CCN(C2CCCCC2)CC1 (centres unmarked) [Example 64]
120 to 122 °C | – | O=C(NCc1cc(C(F)(F)F)cc(C(F)(F)F)c1)C(c1ccccc1Cl)N1CCN(C2CCCCC2)CC1 (centres unmarked) [Example 29]
215 to 224 °C | – | O=C(NCCc1cc(C(F)(F)F)cc(C(F)(F)F)c1)C(c1ccccc1Cl)N1CCN(C2CCCCC2)CC1 (centres unmarked) [Example 63]
124 to 129 °C | – | O=C(NCc1cc(C(F)(F)F)cc(C(F)(F)F)c1)C(c1ccccc1)N1CCN(C2CCCCC2)CC1 (racemic) [Example 1, (R,S)-1-cyclohexyl-piperazinyl-4-[2-phenylacetic acid-N-(3,5-bis-trifluoromethylbenzyl)amide]]
248 to 254 °C | – | O=C(NCc1cc(C(F)(F)F)cc(C(F)(F)F)c1)C(c1ccc(Cl)c(Cl)c1)N1CCN(C2CCCCC2)CC1 (centres unmarked) [Example 23]
124 to 127 °C | – | O=C(NCc1cc(C(F)(F)F)cc(C(F)(F)F)c1)C(c1cccc(Br)c1)N1CCN(C2CCCCC2)CC1 (centres unmarked) [Example 27]
97 to 99 °C | – | O=C(NCc1cc(C(F)(F)F)cc(C(F)(F)F)c1)C(c1ccccc1)N1CCN(CCC2CCCCC2)CC1 (centres unmarked) [Example 6]
112 to 118 °C | – | O=C(NCc1cc(C(F)(F)F)cc(C(F)(F)F)c1)C(c1ccc(Cl)cc1)N1CCN(C2CCCCC2)CC1 (centres unmarked) [Example 26]
192 to 199 °C | – | O=C(NCCc1cc(C(F)(F)F)cc(C(F)(F)F)c1)C(c1ccccc1)N1CCC(N2CCCCC2)CC1 (centres unmarked) [Example 25]
118 to 120 °C | – | O=C(NCc1cc(C(F)(F)F)cc(C(F)(F)F)c1)C(c1ccccc1Br)N1CCN(C2CCCCC2)CC1 (centres unmarked) [Example 28]
142 to 150 °C | – | COc1ccccc1C(C(=O)NCc1cc(C(F)(F)F)cc(C(F)(F)F)c1)N1CCN(C2CCCCC2)CC1 (centres unmarked) [Example 42]
70 to 73 °C | – | O=C(O)CN(Cc1cc(C(F)(F)F)cc(C(F)(F)F)c1)C(=O)C(c1ccccc1)N1CCN(C2CCCCC2)CC1 (centres unmarked) [Example 22]
155 to 172 °C | – | O=C(NCCc1cc(C(F)(F)F)cc(C(F)(F)F)c1)C(c1cccc2ccccc12)N1CCN(C2CCCCC2)CC1 (centres unmarked) [Example 38]

Reference: patent US6413959B1, “Method of treating depression with arylglycinamide derivatives” (Boehringer Ingelheim KG, priority 1995, dated 2002)
